Each block holds one molecule with its values, some of them ahead of it.
Experiments:
[1] = test system: CD11c+ dendritic cells / OTII T cells; experiment: Antigen presentation assay, purified CD11c+ dendritic cells and purified OTII T cells; assay type: cell-based, mouse
Method: FIGS. 4A, 4B, 4C and 4D are graphs showing that CD11c^+ dendritic cells are the main antigen presenting cells presenting 3-1-targeted antigen. […] 1.5×10^4 Splenic CD11c^+ dendritic cells purified from C57BL/6 mice and 3.0×10^4 purified OTII T cells were incubated with OVA (starting concentration 300 μg mL^−1) or (OVA)-3-1 (starting concentration 25 μg mL^−1) in graded doses for eight-four hours with [^3H]thymidine (1 μCi) added for the last twelve hours. […] Purified CD11c^+ dendritic cells and OTII T cells were incubated with (OVA)-3-1 (25 μg mL^−1)±each potential inhibitor (100 μg mL^−1). T cell proliferation was determined as for FIG. 4A. […] CD11c^+ dendritic cells and OTII T cells were incubated with OVA or (OVA)-3-1±lipopolysaccharide ([…]). Also included are all ‘non-dendritic cells’ (macrophages and B cells) obtained during the purification of the dendritic cells. T cell proliferation was determined as described in FIG. 4A. […] Supernatants from cells described in FIG. 4C were collected at forty-eight and seventy-two hours and measured for IFN-γ by ELISA; the values presented are from the seventy-two hour time point. All measurements here were performed in triplicate.
To confirm that the increased T cell proliferation observed with (OVA)-3-1 was due to the selective uptake of this conjugate by dendritic cells and not B cells or macrophages, purified CD11c^+ dendritic cells were prepared from wild-type C57BL/6 mice and the OVA-specific T cells from transgenic OTII mice (see Materials & Methods). The in vitro antigen presentation assays described above were then repeated. […] By comparison, >50-fold more unmodified OVA was required to obtain similar levels of T cell proliferation. When B cells and macrophages were used as antigen-presenting cells in place of purified dendritic cells, the resulting T cell responses were negligible (FIG. 4C), providing strong confirmation that CD11c^+ dendritic cells are the main antigen-presenting cells mediating uptake and presentation of (OVA)-3-1 to OTII T cells.
(§1) Pooled inguinal lymph nodes were dissociated in 10% Fetal Bovine Serum RPMI (supplemented with 2 mM L-glutamine) and either mechanically dissociated between two glass slides or, to improve the overall cell yield, incubated in the presence of collagenase (Boehringer) and EDTA for 25 minutes at 37° C./5% CO2 to dissociate DC-T cell clusters. For antigen presentation assays with whole splenocytes, isolated spleens were injected with collagenase/EDTA, gently teased apart and incubated as described above. Splenocytes were cultured in 96-well round-bottom plates at a density of 3×10^5 cells/0.2 mL. In antigen presentation assays utilizing purified dendritic cells and T cells, dendritic cells were isolated from the spleens of C57BL/6 mice following collagenase/EDTA treatment by labeling the dendritic cells with commercially available magnetic microbeads linked to an anti-CD11c^+ antibody (Miltenyi Biotec, Bergisch Gladbach, Germany) (according to the Miltenyi Biotec protocol) and separating labeled Dendritic cells from non-dendritic cells by application of a magnetic field. Similarly, purified […] T cells were obtained from spleens of OTII transgenic mice using magnetic beads Dynal (Oslo, Norway). Purified dendritic cells and T cells were seeded onto 96-well plates round-bottom Plates at a 1:2 DC:T cell ratio unless stated otherwise in the Figures.

DC-SIGN = molecular target: T1, DC-SIGN (Homo sapiens, UniProt Q9NNX6); settings: carbohydrate profiling by another group; cited from earlier work
T1 sequence (Q9NNX6 1-404): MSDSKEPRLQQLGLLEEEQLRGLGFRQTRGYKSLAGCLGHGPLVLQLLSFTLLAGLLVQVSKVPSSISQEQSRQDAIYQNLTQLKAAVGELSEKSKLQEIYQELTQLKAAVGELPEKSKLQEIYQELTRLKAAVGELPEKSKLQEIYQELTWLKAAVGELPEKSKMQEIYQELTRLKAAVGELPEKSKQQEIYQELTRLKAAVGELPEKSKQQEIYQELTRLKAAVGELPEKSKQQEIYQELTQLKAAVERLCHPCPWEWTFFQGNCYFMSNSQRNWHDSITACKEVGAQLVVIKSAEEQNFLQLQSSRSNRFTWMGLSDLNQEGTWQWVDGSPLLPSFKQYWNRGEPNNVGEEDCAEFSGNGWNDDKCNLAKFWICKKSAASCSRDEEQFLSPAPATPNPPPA

[2] = test system: OTII (CD4+) T cells in unfractionated splenocytes; experiment: Antigen presentation assay, unfractionated OTII splenocytes, [3H]thymidine T cell proliferation; assay type: cell-based, mouse; settings: OTII splenocytes
Method: FIG. 2B is a graph showing that oligosaccharide modification of OVA elicits stronger presentation to OTII T cells than unmodified OVA. Unfractionated OTII splenocytes (3×10^5/well) were incubated with graded doses of OVA or oligosaccharide-modified OVA for eighty-four hours with [^3H]thymidine (1 μCi) added for the last 12 hours. Thereafter [^3H]thymidine incorporation levels were measured and plotted. FIG. 2C is a graph showing that observed enhancements in antigen presentation of (OVA)-3-1 to T cells is carbohydrate dependent. Splenocytes were incubated with antigen as in (B)±(BSA)-3-1 (10 μg mL^−1). In cases where (OVA)-3-1 was added to OVA wells to assess the possibility of direct activation of T cells (see text), (OVA)-3-1 was present at 50 ng mL^−1; incubations were performed for seventy-two hours with [^3H]thymidine (1 μCi) added for the last 12 hours. FIG. 2D is a graph showing that the receptor mediated uptake of (OVA)-3-1 has a different binding profile than that observed for DC-SIGN. Unfractionated splenocytes were incubated with OVA or (OVA)-3-1±mBSA or Lewis^x-BSA (each at 100 μg mL^−1). Incubations were performed for seventy-two hours with [^3H]thymidine (1 μCi) added for the last twelve hours. All values reported are the mean of triplicate measurements.
The ability of these conjugates to enhance antigen uptake by dendritic cells was assessed in comparison to unmodified OVA by incubating graded doses of conjugate and OVA with unfractionated splenocytes (containing T cells, B cells, dendritic cells, macrophages) isolated from OTII (CD4^+) transgenic mice. The ability of dendritic cells to present antigenic peptides derived from targeted proteins was measured as a function of T cell proliferation in response to those presented peptides. T cell proliferation is quantified by [^3H]thymidine incorporation during cellular division.
as §1

[3] = molecular target: T2, (OVA)-3-1, ovalbumin conjugated to the synthetic high-mannose nonasaccharide 3-1 (fluorophore-labeled in the … (UniProt P01012 2-386, average of three saccharides of structure 3-1 per molecule of OVA, coupled through the Sulfo-SMCC maleimide crosslinker to the thiol-bearing linker of the saccharide (sites not given); fluorophore …); experiment: binding and internalization of fluorophore-labeled (OVA)-3-1 on a cell line stably expressing CIRE
T2 construct: Neoglycoprotein; also called fluorophore-labeled (OVA)-3-1; carbohydrate-OVA conjugate
T2 sequence (looked up): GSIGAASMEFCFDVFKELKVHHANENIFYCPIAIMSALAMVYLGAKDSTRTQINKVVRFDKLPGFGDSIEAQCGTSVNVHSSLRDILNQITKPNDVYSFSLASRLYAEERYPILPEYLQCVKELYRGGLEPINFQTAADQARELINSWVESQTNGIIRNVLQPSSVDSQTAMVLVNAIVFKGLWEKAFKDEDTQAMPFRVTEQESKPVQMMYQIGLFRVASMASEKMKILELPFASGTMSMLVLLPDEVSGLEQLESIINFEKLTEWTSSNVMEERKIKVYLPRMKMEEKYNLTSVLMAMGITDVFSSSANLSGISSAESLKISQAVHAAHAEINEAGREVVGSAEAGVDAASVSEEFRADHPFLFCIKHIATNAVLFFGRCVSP
Method: (§2) To identify the receptor mediating uptake of the oligosaccharides employed herein, the murine DC-SIGN homolog CIRE[10] was analyzed as a potential receptor; a cell line stably expressing this lectin was used to assay for binding and internalization of fluorophore-labeled 3-1 and fluorophore-labeled (OVA)-3-1. […] The receptor may be identified biochemically, for example, by cross-linking it to bound (OVA)-3-1 and immunoprecipitating the complex with polyclonal sera raised against ovalbumin. Identification of the receptor would enable the determination of its human homolog.

CIRE = molecular target: T3, CIRE (Mus musculus, UniProt Q91ZX1); experiment: Binding and internalization by a cell line stably expressing CIRE; assay type: cell-based, murine
T3 construct: expressed in transfected cells
T3 sequence (Q91ZX1 1-238): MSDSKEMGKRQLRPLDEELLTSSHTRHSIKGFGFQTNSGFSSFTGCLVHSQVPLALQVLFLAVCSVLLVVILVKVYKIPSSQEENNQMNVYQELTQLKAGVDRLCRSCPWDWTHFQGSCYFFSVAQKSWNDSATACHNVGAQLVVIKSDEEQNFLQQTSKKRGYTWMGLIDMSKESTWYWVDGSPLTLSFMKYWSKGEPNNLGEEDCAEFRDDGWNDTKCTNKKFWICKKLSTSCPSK
Method: as §2, with “CIRE^10” for “CIRE[10]”

[4] = (OVA)-3-1 25 μg mL^−1, inhibitor 100 μg mL^−1

Molecule: CC(=O)N[C@H]1C(O)O[C@H](CO)[C@@H](O[C@@H]2O[C@H](CO)[C@H](O)[C@H](O)[C@H]2O)[C@@H]1O[C@@H]1O[C@@H](C)[C@@H](O)[C@@H](O)[C@@H]1O (stereo partly drawn) [Lewis^x, reference compound]
- inhibitory effect on (OVA)-3-1 presentation by dendritic cells [1, 4]: marginal effects
- recognition by DC-SIGN (DC-SIGN): can recognize

Molecule: bovine serum albumin [BSA, reference compound]
- effect of co-incubated protein on (OVA)-3-1 uptake / OTII proliferation ([2]; (BSA)-3-1 10 μg mL^−1, 72 h): did not affect

Molecule: invertase: high-mannose-bearing glycoprotein [reference compound]
- reduction (inhibition) of (OVA)-3-1 presentation [1, 4]: 18%
- concentration giving inhibition of (OVA)-3-1 presentation ([1]; similar level of inhibition as mannose): 0.5 µM

Molecule: mannan [reference compound]
- reduction (inhibition) of (OVA)-3-1 presentation [1, 4]: 31%

- binding result [3]: no binding
B1: CIRE, murine DC-SIGN homolog (receptor)
chain: MSDSKEMGKRQLRPLDEELLTSSHTRHSIKGFGFQTNSGFSSFTGCLVHSQVPLALQVLFLAVCSVLLVVILVKVYKIPSSQEENNQMNVYQELTQLKAGVDRLCRSCPWDWTHFQGSCYFFSVAQKSWNDSATACHNVGAQLVVIKSDEEQNFLQQTSKKRGYTWMGLIDMSKESTWYWVDGSPLTLSFMKYWSKGEPNNLGEEDCAEFRDDGWNDTKCTNKKFWICKKLSTSCPSK

B2: (OVA)-3-7: ovalbumin conjugate of monosaccharide galactose 3-7 (conjugate, UniProt P01012 2-386, looked up)
Ovalbumin: GSIGAASMEFCFDVFKELKVHHANENIFYCPIAIMSALAMVYLGAKDSTRTQINKVVRFDKLPGFGDSIEAQCGTSVNVHSSLRDILNQITKPNDVYSFSLASRLYAEERYPILPEYLQCVKELYRGGLEPINFQTAADQARELINSWVESQTNGIIRNVLQPSSVDSQTAMVLVNAIVFKGLWEKAFKDEDTQAMPFRVTEQESKPVQMMYQIGLFRVASMASEKMKILELPFASGTMSMLVLLPDEVSGLEQLESIINFEKLTEWTSSNVMEERKIKVYLPRMKMEEKYNLTSVLMAMGITDVFSSSANLSGISSAESLKISQAVHAAHAEINEAGREVVGSAEAGVDAASVSEEFRADHPFLFCIKHIATNAVLFFGRCVSP
modifications: carbohydrate conjugate
- enhancement of antigen uptake and presentation to T cells (T cell proliferation) compared to unmodified OVA ([2]; graded doses): did not promote increased presentation at all

- binding and internalization by CIRE-expressing cell line (CIRE): did not reveal any interactions
B3: fluorophore-labeled (OVA)-3-1: fluorophore-labeled (OVA)-3-1 (conjugate)
chain: GSIGAASMEFCFDVFKELKVHHANENIFYCPIAIMSALAMVYLGAKDSTRTQINKVVRFDKLPGFGDSIEAQCGTSVNVHSSLRDILNQITKPNDVYSFSLASRLYAEERYPILPEYLQCVKELYRGGLEPINFQTAADQARELINSWVESQTNGIIRNVLQPSSVDSQTAMVLVNAIVFKGLWEKAFKDEDTQAMPFRVTEQESKPVQMMYQIGLFRVASMASEKMKILELPFASGTMSMLVLLPDEVSGLEQLESIINFEKLTEWTSSNVMEERKIKVYLPRMKMEEKYNLTSVLMAMGITDVFSSSANLSGISSAESLKISQAVHAAHAEINEAGREVVGSAEAGVDAASVSEEFRADHPFLFCIKHIATNAVLFFGRCVSP
